Laboratory results as given in patent US12281079B2, “Quinoline derivatives, processes for their preparation and uses thereof for the treatment of cancer” (Lead Discovery Center GmbH, priority 2019, dated 2025).

Tests used:
[1] = system: mitochondrial transcription (7S RNA) in HeLa cells; assay: Quantitative real time-PCR assay of inhibition of mitochondrial transcription (7S RNA) in HeLa cells; assay type: cell-based; conditions: Homo sapiens, 4 h compound incubation, according to Example 5, read-out: cellular qPCR assay
How it was run: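 HeLa cells were exposed to compound dilution series or DMSO for 4 h, then RNA was extracted, normalized and reverse-transcribed. TaqMan qRT-PCR measured short-lived 7S RNA, with POLRMT as nuclear-transcription readout and TBP as housekeeping gene. Biological triplicates were analyzed by ΔΔCt and reported as Rq % (2−ΔΔCt).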

[2] = molecular target: mitochondrial RNA polymerase (POLRMT) (Mus musculus, UniProt Q8BKF1); assay: Homogeneous TR-FRET assay for mitochondrial transcription activity; assay type: biochemical; conditions: homogeneous TR-FRET assay according to Example 4
How it was run: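 Read-out is TR-FRET (ex 340, em 665 nm) from two adjacent labelled DNA probes annealing to the 407 bp transcript after EDTA/700 mM NaCl stop. Reaction: murine POLRMT, TFAM, TFB2M and LSP plasmid template, compound 10 μM or serial dilution, 10 min rt preincubation, 500 μM each nucleotide, 2 h rt.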

Sequence of mitochondrial RNA polymerase (POLRMT) (Q8BKF1 42-1207): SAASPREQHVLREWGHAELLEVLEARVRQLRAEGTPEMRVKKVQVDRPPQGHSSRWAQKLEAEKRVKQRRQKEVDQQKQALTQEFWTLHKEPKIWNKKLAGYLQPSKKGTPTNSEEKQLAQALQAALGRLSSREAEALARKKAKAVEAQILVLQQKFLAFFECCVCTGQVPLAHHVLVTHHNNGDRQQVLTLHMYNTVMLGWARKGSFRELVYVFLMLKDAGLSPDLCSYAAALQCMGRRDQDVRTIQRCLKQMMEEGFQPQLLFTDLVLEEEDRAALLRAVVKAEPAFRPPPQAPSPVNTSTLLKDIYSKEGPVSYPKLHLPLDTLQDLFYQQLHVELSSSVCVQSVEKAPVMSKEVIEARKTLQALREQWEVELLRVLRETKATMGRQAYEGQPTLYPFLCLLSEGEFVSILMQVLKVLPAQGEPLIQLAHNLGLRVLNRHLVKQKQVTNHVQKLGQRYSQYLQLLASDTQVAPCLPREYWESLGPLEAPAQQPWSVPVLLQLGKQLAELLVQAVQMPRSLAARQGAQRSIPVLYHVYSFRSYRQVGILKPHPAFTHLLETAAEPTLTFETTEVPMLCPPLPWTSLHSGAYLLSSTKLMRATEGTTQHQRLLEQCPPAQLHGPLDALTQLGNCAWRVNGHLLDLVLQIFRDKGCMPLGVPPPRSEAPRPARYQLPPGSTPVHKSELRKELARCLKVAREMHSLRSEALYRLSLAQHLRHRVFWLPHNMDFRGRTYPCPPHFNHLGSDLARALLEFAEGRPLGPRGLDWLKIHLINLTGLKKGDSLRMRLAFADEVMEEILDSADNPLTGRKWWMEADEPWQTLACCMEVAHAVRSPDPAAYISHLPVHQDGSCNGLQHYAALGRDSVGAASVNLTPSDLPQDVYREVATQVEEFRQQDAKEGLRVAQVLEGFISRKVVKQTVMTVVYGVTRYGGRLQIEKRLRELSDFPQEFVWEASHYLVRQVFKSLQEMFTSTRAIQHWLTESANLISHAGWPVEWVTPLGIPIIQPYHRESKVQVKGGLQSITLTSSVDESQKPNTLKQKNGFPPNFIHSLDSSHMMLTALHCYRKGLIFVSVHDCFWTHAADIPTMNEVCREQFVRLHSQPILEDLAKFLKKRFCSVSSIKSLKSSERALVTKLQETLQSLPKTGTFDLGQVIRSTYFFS

IC50 [1] [nM] | IC50 [2] [nM] | SMILES
< 10 | < 20 | Cc1cc(F)cc(C)c1-c1ccnc2cc(O[C@H](C)C(=O)N3CCC4(CC3)COC4)ccc12 [Compound 179, (2R)-2-[[4-(4-fluoro-2,6-dimethyl-phenyl)-7-quinolyl]oxy]-1-(2-oxa-7-azaspiro[3.5]nonan-7-yl)propan-1-one]
< 10 | < 20 | C[C@@H](Oc1ccc2c(-c3ccc(F)cc3Cl)ccnc2c1)C(=O)N1CCC[C@](C)(C(=O)O)C1 [Compound 189, (3S)-1-[(2R)-2-[[4-(2-chloro-4-fluoro-phenyl)-7-quinolyl]oxy]propanoyl]-3-methyl-piperidine-3-carboxylic acid]
50 to 500 | 100 to 1000 | C[C@@H](Oc1ccc2c(-c3ccc(F)cc3Cl)ccnc2c1)C(=O)Nc1ccncc1 [Compound 95, (2R)-2-[[4-(2-chloro-4-fluoro-phenyl)-7-quinolyl]oxy]-N-(4-pyridyl)propanamide]
< 10 | < 20 | Cc1cc(F)cc(C)c1-c1ccnc2cc(O[C@H](C)C(=O)N3CCCC[C@H]3C)ccc12 [Compound 187, (2R)-2-[[4-(4-fluoro-2,6-dimethyl-phenyl)-7-quinolyl]oxy]-1-[(2R)-2-methyl-1-piperidyl]propan-1-one]
10 to 50 | 100 to 1000 | C[C@@H](Oc1ccc2c(-c3ccc(F)cc3Cl)ccnc2c1)C(=O)N1CCC[C@H](C#N)C1 [Compound 30, (3S)-1-[(2R)-2-[[4-(2-chloro-4-fluoro-phenyl)-7-quinolyl]oxy]propanoyl]piperidine-3-carbonitrile]
10 to 50 | 100 to 1000 | CC(Oc1ccc2c(-c3ccc(F)cc3Cl)ccnc2n1)C(=O)N1CCC[C@H](C(=O)O)C1 (mixture of isomers) [Compound 62, (3S)-1-[2-[[5-(2-chloro-4-fluoro-phenyl)-1,8-naphthyridin-2-yl]oxy]propanoyl]piperidine-3-carboxylic acid]
< 10 | < 20 | C[C@@H](Oc1ccc2c(-c3ccccc3Cl)ccnc2c1)C(=O)N1CCC[C@@H](C(=O)O)C1 [Compound 7, (3R)-1-[(2R)-2-[[4-(2-chlorophenyl)-7-quinolyl]oxy]propanoyl]piperidine-3-carboxylic acid]
10 to 50 | 20 to 100 | C[C@@H](Oc1ccc2c(-c3ccc(F)cc3Cl)ccnc2c1)C(=O)N1CCCC(C(C)(C)C(=O)O)C1 (stereo partly drawn) [Compound 197, 2-methyl-2-[1-[rac-(2R)-2-[[4-(2-chloro-4-fluoro-phenyl)-7-quinolyl]oxy]propanoyl]-3-piperidyl]propanoic acid]
50 to 500 | 20 to 100 | C[C@@H](Oc1ccc2c(-c3ccc(F)cc3Cl)ccnc2c1)C(=O)N1CCC(C(=O)O)CC1 [Compound 24, 1-[(2R)-2-[[4-(2-chloro-4-fluoro-phenyl)-7-quinolyl]oxy]propanoyl]piperidine-4-carboxylic acid]
10 to 50 | 100 to 1000 | CCOC(=O)[C@@H](C)Oc1ccc2c(-c3ccccc3Cl)ccnc2c1 [Compound 50, ethyl (2R)-2-[[4-(2-chlorophenyl)-7-quinolyl]oxy]propanoate]
< 10 | < 20 | Cc1cc(F)cc(C)c1-c1ccnc2cc(O[C@H](C)C(=O)N3CCC[C@](C)(C(=O)O)C3)ccc12 [Compound 184, (3S)-1-[(2R)-2-[[4-(4-fluoro-2,6-dimethyl-phenyl)-7-quinolyl]oxy]propanoyl]-3-methyl-piperidine-3-carboxylic acid]
10 to 50 | 100 to 1000 | C[C@@H](Oc1ccc2c(-c3ccc(F)cc3Cl)ccnc2c1)C(=O)N1CCC2(CC1)COC2 [Compound 210, (2R)-2-[[4-(2-chloro-4-fluoro-phenyl)-7-quinolyl]oxy]-1-(2-oxa-7-azaspiro[3.5]nonan-7-yl)propan-1-one]
500 to 5000 | 100 to 1000 | C[C@@H](Oc1ccc2c(-c3ccc(F)cc3Cl)ccnc2c1)C(=O)Nc1ccccn1 [Compound 130, (2R)-2-[[4-(2-chloro-4-fluoro-phenyl)-7-quinolyl]oxy]-N-(2-pyridyl)propanamide]
50 to 500 | 100 to 1000 | C[C@@H](Oc1ccc2c(-c3ccc(F)cc3Cl)ccnc2n1)C(=O)N1CCC[C@H](CC(=O)O)C1 [Compound 128, 2-[(3R)-1-[(2R)-2-[[5-(2-chloro-4-fluoro-phenyl)-1,8-naphthyridin-2-yl]oxy]propanoyl]-3-piperidyl]acetic acid]
50 to 500 | 100 to 1000 | O=C(O)[C@H]1CCCN(C(=O)COc2ccc3c(-c4ccccc4Cl)ccnc3c2)C1 [Compound 46, (3S)-1-[2-[[4-(2-chlorophenyl)-7-quinolyl]oxy]acetyl]piperidine-3-carboxylic acid]
500 to 5000 | 100 to 1000 | C[C@H](Oc1ccc2c(-c3ccccc3Cl)ccnc2c1)C(=O)N1CCC[C@H](C(=O)O)C1 [Compound 78, (3S)-1-[(2S)-2-[[4-(2-chlorophenyl)-7-quinolyl]oxy]propanoyl]piperidine-3-carboxylic acid]
50 to 500 | 100 to 1000 | C[C@@H](Oc1ccc2c(-c3ccc(F)cc3Cl)ccnc2c1)C(=O)N1CCNC(=O)C1 [Compound 63, (R)-4-(2-((4-(2-chloro-4-fluorophenyl)quinolin-7-yl)oxy)propanoyl)piperazin-2-one]
50 to 500 | 100 to 1000 | C[C@@H](Oc1ccc2c(-c3ccc(F)cc3Cl)ccnc2c1)C(=O)NC1CC1 [Compound 77, (2R)-2-[[4-(2-chloro-4-fluoro-phenyl)-7-quinolyl]oxy]-N-cyclopropyl-propanamide]
50 to 500 | 100 to 1000 | C[C@@H](Oc1ccc2c(-c3ccc(F)cc3Cl)ccnc2c1)C(=O)N(C)C [Compound 45, (2R)-2-[[4-(2-chloro-4-fluoro-phenyl)-7-quinolyl]oxy]-N,N-dimethyl-propanamide]
50 to 500 | 100 to 1000 | Cc1cscc1-c1ccnc2cc(O[C@H](C)C(=O)N3CCC[C@H](CC(=O)O)C3)ccc12 [Compound 133, 2-[(3R)-1-[(2R)-2-[[4-(4-methyl-3-thienyl)-7-quinolyl]oxy]propanoyl]-3-piperidyl]acetic acid]
< 10 | 100 to 1000 | C[C@@H](Oc1ccc2c(-c3ccc(F)cc3Cl)ccnc2c1)C(=O)N1CCCC(C2(O)CC2)C1 (stereo partly drawn) [Compound 207, (2R)-2-[[4-(2-chloro-4-fluoro-phenyl)-7-quinolyl]oxy]-1-[3-(1-hydroxycyclopropyl)-1-piperidyl]propan-1-one]
50 to 500 | 100 to 1000 | C[C@@H](Oc1ccc2c(-c3ccc(F)cc3Cl)ccnc2c1)C(=O)N1CCCC1 [Compound 42, (2R)-2-[[4-(2-chloro-4-fluoro-phenyl)-7-quinolyl]oxy]-1-pyrrolidin-1-yl-propan-1-one]
50 to 500 | 100 to 1000 | CNC(=O)C[C@H]1CCCN(C(=O)[C@@H](C)Oc2ccc3c(-c4ccccc4Cl)cc(Cl)nc3c2)C1 [Compound 68, 2-[(3R)-1-[(2R)-2-[[2-chloro-4-(2-chlorophenyl)-7-quinolyl]oxy]propanoyl]-3-piperidyl]-N-methyl-acetamide]
50 to 500 | 100 to 1000 | C[C@@H](Oc1ccc2c(-c3ccc(F)cc3Cl)ccnc2c1)C(=O)N1CCCC(CS(N)(=O)=O)C1 (mixture of isomers) [Compound 123, [1-[rac-(2R)-2-[[4-(2-chloro-4-fluoro-phenyl)-7-quinolyl]oxy]propanoyl]-3-piperidyl]methanesulfonamide]
